US12221448B2, “Selective PI3Kδ inhibitor and use thereof” (TARAPEUTICS SCIENCE INC., priority 2018, dated 2025)
Like-named read-outs stand apart in the source and are kept apart here.

What was measured:
Assay type in all cases: biochemical
PI3Kα = molecular target: T1, PI3Kα (Homo sapiens, UniProt P42336); assay: In vitro enzyme activity (ADP-Glo) against PI3Kα; settings: Table 2; ATP 10 μM, PIP2:PS 50 μM
T1 construct: purchased Invitrogen (US)
Description: (§1) In vitro enzyme activity experiments were performed to determine the IC50 values of the compounds against PI3K family type I kinases (PI3Kα, PI3Kβ, PI3Kγ, PI3Kδ) and type II kinases (PIK3C2A, PIK3C2B). Protein kinases PI3Kα, PI3Kγ, PI3Kδ, PIK3C2A, and PIK3C2B were all purchased from Invitrogen (US); protein kinase PI3Kβ was purchased from sigma (US); the three substrates PIP2: PS, PI and PI: PS were purchased from Invitrogen (US).
(§2) Protein kinases diluted to a certain concentration, i.e., PI3Kα 5.4 μL (with a final concentration of 0.16 ng/μL), PI3Kβ 5.4 μL (with a final concentration of 6 ng/μL), PI3Kδ 5.4 μL (with a final concentration of 1 ng/μL), PI3Kγ 5.4 μL (with a final concentration of 5 ng/μL), PIK3C2A 5.4 μL (with a final concentration of 5 ng/μL), and PIK3C2B 5.4 μL (with a final concentration of 10 ng/μL) were respectively reacted with 1 μL of the serially diluted drug compounds for 1 hour at room temperature (final drug concentrations were 10 μM, 1 μM, 0.3 μM, 0.1 μM, 0.03 μM, 0.01 μM, 0.003 μM, and 0.001 μM, respectively).
(§3) To each reaction tube of the above PI3K family type I kinases, 6 μL of a mixture of ATP (Promega, US) and substrate PIP2:PS (final concentrations of ATP in the reaction systems of kinases PI3Kα, and PI3Kβ were 10 μM, and final concentrations of ATP in the reaction systems of kinases PI3Kδ, and PI3Kγ were 50 μM, and final concentrations of the substrate PIP2:PS were all 50 μM) was added, and reacted at 37° C. for 1 hour. The reaction buffer was 50 mM Hepes (pH 7.5) (Promega, USA), 3 mM MgCl2, 1 mM EGTA (Promega, US), 100 mM NaCl, 0.03% CHAPS (Promega, US).
(§4) 5 μL of kinase solution after reaction was placed in a 384-well plate (Corning, US), and 5 μL of ADP-Glo™ reagent (Promega, US) was added thereto and reacted at room temperature for 40 minutes to stop the kinase reaction and exhaust the remaining ATP; 10 μL of kinase detection reagent was added to convert ADP into ATP, and coupled luciferase/luciferin reaction was utilized to detect the newly synthesized ATP. Envision was utilized for readout and plotting, and Graphpad IC50 value was calculated.

PI3Kβ = molecular target: T2, PI3Kβ (Homo sapiens, UniProt P42338); assay: In vitro enzyme activity (ADP-Glo) against PI3Kβ; settings: ATP 10 μM, PIP2:PS 50 μM
T2 construct: purchased sigma (US)
Description: as §1, §2, §3, §4

PI3Kγ = molecular target: T3, PI3Kγ (Homo sapiens, UniProt P48736); assay: In vitro enzyme activity (ADP-Glo) against PI3Kγ; settings: ATP 50 μM, PIP2:PS 50 μM
T3 construct: purchased Invitrogen (US)
Description: as §1, §2, §3, §4

PI3Kδ = molecular target: T4, PI3Kδ (Homo sapiens, UniProt O00329); assay: In vitro enzyme activity (ADP-Glo) against PI3Kδ; settings: Table 2; ATP 50 μM, PIP2:PS 50 μM
T4 construct: purchased Invitrogen (US)
Description: as §1, §2, §3, §4

[1] = Table 2, read-out: IC50 against PI3Kβ
[2] = Table 2, read-out: IC50 against PI3Kγ

T2 sequence (P42338 whole entry): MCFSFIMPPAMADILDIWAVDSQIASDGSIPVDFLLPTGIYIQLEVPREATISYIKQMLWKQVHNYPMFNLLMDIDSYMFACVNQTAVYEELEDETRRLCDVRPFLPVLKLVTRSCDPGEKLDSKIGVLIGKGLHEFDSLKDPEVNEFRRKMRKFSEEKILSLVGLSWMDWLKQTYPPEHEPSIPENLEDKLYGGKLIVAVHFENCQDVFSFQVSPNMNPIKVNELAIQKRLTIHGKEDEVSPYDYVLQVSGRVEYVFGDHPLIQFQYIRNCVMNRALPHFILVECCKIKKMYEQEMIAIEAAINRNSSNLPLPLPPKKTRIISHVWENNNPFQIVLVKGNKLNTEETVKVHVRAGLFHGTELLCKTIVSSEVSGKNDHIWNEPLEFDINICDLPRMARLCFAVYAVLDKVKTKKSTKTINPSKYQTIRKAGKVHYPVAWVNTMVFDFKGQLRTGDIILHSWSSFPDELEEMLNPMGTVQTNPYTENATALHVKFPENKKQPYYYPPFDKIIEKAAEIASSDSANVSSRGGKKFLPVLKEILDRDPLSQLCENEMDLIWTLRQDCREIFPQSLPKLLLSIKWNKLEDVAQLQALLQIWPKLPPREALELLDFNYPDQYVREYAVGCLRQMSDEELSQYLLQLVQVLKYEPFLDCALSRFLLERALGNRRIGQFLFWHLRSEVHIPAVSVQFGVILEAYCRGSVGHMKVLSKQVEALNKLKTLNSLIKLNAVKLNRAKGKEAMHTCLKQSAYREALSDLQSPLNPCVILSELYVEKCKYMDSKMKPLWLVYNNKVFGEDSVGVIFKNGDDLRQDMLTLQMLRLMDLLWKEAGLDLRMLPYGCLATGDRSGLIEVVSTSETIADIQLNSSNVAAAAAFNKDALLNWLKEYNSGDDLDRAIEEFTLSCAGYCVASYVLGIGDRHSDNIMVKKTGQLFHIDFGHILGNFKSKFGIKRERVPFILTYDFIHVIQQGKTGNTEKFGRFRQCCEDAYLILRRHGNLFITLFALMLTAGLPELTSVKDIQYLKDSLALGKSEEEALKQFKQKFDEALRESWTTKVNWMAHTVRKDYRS
T2 sequence (P27986 whole entry partner): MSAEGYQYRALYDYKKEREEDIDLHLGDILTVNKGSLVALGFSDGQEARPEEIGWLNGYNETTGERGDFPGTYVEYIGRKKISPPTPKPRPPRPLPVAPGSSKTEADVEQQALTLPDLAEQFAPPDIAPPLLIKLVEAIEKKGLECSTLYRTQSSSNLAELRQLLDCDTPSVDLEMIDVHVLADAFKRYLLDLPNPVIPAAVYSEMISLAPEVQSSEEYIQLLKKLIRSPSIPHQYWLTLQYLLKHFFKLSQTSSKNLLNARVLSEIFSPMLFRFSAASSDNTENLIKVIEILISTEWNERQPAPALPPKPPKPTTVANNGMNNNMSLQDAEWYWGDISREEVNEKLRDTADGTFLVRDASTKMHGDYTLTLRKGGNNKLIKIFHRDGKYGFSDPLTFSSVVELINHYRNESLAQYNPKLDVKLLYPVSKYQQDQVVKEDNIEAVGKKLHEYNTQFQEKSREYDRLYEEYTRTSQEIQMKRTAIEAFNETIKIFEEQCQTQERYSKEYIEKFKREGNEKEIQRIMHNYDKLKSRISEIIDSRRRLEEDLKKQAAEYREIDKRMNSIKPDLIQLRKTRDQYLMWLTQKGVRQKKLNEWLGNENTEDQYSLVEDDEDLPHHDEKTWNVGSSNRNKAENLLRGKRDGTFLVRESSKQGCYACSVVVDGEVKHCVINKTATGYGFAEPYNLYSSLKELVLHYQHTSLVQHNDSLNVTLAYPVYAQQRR
T4 sequence (O00329 whole entry): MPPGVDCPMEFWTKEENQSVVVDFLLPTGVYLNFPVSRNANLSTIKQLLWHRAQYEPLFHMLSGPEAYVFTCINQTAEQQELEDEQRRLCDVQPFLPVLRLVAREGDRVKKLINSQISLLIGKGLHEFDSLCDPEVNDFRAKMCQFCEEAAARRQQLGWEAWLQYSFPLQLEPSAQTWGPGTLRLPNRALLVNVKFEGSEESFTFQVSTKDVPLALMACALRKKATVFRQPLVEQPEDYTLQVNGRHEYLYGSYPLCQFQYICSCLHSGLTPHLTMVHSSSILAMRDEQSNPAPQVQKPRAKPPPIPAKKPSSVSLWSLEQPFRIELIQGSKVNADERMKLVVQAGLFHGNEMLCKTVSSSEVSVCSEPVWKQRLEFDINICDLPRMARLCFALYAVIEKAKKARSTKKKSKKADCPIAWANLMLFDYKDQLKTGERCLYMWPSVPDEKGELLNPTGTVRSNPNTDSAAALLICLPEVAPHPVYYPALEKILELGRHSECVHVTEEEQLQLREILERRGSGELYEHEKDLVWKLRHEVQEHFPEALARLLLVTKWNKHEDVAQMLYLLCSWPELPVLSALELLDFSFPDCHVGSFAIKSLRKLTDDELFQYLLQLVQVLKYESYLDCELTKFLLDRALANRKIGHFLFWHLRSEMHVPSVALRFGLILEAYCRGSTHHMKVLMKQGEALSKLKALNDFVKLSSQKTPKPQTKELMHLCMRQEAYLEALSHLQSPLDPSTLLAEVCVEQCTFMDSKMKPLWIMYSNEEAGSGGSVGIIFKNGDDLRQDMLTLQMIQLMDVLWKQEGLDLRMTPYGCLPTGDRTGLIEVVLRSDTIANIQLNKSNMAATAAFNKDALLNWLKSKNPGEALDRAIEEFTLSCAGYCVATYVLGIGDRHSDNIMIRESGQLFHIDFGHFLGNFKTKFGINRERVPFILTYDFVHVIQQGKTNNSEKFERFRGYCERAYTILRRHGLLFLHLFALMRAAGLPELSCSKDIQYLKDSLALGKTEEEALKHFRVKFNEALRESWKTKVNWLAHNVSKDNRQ
T4 sequence (P27986 whole entry partner): as the sequence (P27986 whole entry partner) above
T3 sequence (P48736 whole entry): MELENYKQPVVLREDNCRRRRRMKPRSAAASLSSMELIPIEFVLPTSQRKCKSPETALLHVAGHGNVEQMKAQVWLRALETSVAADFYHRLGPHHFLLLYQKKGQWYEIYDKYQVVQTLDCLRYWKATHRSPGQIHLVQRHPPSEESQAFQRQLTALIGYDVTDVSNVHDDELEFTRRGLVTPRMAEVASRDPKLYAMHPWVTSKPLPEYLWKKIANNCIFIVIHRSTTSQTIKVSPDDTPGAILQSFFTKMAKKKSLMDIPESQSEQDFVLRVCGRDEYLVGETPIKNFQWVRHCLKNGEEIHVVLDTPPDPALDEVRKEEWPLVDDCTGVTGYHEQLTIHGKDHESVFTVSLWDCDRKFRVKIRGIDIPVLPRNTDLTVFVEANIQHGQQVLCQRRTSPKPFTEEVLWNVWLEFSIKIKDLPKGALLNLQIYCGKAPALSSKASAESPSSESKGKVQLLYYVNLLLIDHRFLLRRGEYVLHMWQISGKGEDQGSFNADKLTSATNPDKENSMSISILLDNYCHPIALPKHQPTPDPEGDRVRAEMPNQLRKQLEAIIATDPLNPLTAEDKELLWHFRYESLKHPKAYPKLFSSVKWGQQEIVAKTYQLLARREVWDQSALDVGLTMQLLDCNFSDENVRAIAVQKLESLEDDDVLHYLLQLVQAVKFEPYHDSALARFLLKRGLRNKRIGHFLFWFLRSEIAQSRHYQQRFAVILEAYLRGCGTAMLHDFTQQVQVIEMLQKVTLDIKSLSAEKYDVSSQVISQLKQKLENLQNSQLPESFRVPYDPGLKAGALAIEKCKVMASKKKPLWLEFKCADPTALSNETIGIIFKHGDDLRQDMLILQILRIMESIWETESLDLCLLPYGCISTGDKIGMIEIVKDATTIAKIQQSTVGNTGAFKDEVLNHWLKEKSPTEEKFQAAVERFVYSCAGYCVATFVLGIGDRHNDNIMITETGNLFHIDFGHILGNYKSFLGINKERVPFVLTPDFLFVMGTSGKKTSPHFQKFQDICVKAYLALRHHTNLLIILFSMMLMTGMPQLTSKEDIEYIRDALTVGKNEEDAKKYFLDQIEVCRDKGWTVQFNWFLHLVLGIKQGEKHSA
T1 sequence (P42336 whole entry): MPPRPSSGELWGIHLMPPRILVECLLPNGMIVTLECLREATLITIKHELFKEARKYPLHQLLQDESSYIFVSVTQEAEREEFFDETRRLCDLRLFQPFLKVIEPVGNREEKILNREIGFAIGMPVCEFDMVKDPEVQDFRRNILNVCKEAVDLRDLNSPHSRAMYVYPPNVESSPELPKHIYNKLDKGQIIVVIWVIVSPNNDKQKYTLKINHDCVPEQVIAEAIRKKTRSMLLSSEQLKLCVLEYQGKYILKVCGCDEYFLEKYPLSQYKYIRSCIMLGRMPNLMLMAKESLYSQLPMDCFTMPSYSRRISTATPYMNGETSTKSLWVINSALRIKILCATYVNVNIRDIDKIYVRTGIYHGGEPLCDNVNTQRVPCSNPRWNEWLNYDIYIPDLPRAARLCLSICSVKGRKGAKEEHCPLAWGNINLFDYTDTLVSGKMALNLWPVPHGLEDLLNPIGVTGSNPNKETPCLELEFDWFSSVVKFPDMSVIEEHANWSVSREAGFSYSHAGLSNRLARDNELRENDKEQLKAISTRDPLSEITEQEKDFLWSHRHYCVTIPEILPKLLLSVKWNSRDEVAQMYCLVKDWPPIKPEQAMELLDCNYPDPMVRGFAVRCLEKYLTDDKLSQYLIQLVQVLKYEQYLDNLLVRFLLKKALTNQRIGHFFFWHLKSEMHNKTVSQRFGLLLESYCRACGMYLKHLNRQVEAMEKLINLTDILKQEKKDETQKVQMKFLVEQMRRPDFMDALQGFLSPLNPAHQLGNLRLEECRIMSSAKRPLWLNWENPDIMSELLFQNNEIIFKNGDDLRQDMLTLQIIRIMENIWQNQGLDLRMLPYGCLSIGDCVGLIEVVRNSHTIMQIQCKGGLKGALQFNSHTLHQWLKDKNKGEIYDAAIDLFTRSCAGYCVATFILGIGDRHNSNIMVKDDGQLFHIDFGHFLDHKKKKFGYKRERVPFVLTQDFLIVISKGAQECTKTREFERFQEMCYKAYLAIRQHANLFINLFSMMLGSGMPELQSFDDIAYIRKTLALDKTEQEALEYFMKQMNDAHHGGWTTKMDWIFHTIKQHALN
T1 sequence (P27986 whole entry partner): as the sequence (P27986 whole entry partner) above

Structure (SMILES) | IC50 (PI3Kα) [µM] | IC50 (PI3Kβ; [1]) [µM] | IC50 (PI3Kγ; [2]) [µM] | IC50 (PI3Kδ) [µM] | IC50 (PI3Kβ; Table 3, read-out: IC50 PIK3β) [µM] | IC50 (PI3Kγ; Table 3, read-out: IC50 PIK3γ) [µM]
COc1ccc(-c2nn(C(C)c3nc4cccc(F)c4c(=O)n3C3CCC3)c3ncnc(N)c23)cc1F (centres unmarked) [Compound 1, 2-(1-(4-amino-3-(3-fluoro-4-methoxyphenyl)-1H-pyrazolo [3,4-d]pyrimidin-1-yl)ethyl)-3-cyclobutyl-5-fluoroquinazolin-4(3H)-one] | 7.41 | 2.96 | 4.09 | 0.0274 | – | –
COc1ccc(-c2nn(C(C)c3nc4cccc(F)c4c(=O)n3C3CCCC3)c3ncnc(N)c23)cc1F (centres unmarked) [Compound 5, 2-(1-(4-amino-3-(3-fluoro-4-methoxyphenyl)-1H-pyrazolo [3,4-d]pyrimidin-1-yl)ethyl)-3-cyclopentyl-5-fluoroquinazolin-4(3H)-one] | 5.52 | > 10 | 1.72 | 0.0186 | – | –
COc1ccc(-c2nn(Cc3nc4cccc(F)c4c(=O)n3C3CC3)c3ncnc(N)c23)cc1F [Compound 6, 2-((4-amino-3-(3-fluoro-4-methoxyphenyl)-1H-pyrazolo [3,4-d]pyrimidin-1-yl)methyl)-3-cyclopropyl-5-fluoroquinazolin-4(3H)-one] | 1.69 | 0.523 | 0.299 | 0.031 | – | –
COc1ccc(-c2nn(C(C)c3nc4cccc(F)c4c(=O)n3C3CC3)c3ncnc(N)c23)cc1F (centres unmarked) [Compound 8, 2-(1-(4-amino-3-(3-fluoro-4-methoxyphenyl)-1H-pyrazolo [3,4-d]pyrimidin-1-yl)ethyl)-3-cyclopropyl-5-fluoroquinazolin-4(3H)-one] | 1.72 | 1.3 | 0.148 | 0.014 | – | –
COc1ccc(-c2nn(C(C)c3nc4ccccc4c(=O)n3C3CC3)c3ncnc(N)c23)cc1F (centres unmarked) [Compound 10, 2-(1-(4-amino-3-(3-fluoro-4-methoxyphenyl)-1H-pyrazolo [3,4-d]pyrimidin-1-yl)ethyl)-3-cyclopropylquinazolin-4(3H)-one] | – | 0.122 | 0.103 | 0.0064 | – | –
CCC(c1nc2ccccc2c(=O)n1C1CC1)n1nc(-c2ccc(OC)c(F)c2)c2c(N)ncnc21 (centres unmarked) [Compound 11, 2-(1-(4-amino-3-(3-fluoro-4-methoxyphenyl)-1H-pyrazolo [3,4-d]pyrimidin-1-yl)propyl)-3-cyclopropylquinazolin-4(3H)-one] | – | 0.27 | 0.389 | 0.0183 | – | –
COc1ccc(-c2nn(C(C)c3nc4cccc(F)c4c(=O)n3C3CCCC3)c3ncnc(N)c23)cc1 (centres unmarked) [Compound 14, 2-(1-(4-amino-3-(4-methoxyphenyl)-1H-pyrazolo [3,4-d]pyrimidin-1-yl)ethyl)-3-cyclopentyl-5-fluoroquinazolin-4(3H)-one] | – | > 10 | > 10 | 0.0319 | – | –
COc1ccc(-c2nn(C(C)c3nc4cccc(F)c4c(=O)n3C3CCC3)c3ncnc(N)c23)cc1 (centres unmarked) [Compound 19, 2-(1-(4-amino-3-(4-methoxyphenyl)-1H-pyrazolo [3,4-d]pyrimidin-1-yl)ethyl)-3-cyclobutyl-5-fluoroquinazolin-4(3H)-one] | – | 0.547 | 0.689 | 0.0379 | – | –
COc1ccc(-c2nn(C(C)c3nc4ccc(F)cc4c(=O)n3C3CC3)c3ncnc(N)c23)cc1F (centres unmarked) [Compound 22, 2-(1-(4-amino-3-(3-fluoro-4-methoxyphenyl)-1H-pyrazolo [3,4-d]pyrimidin-1-yl)ethyl)-3-cyclopropyl-6-fluoroquinazolin-4(3H)-one] | 1.69 | 0.344 | 0.485 | 0.0041 | – | –
COc1ccc(-c2nn(C(C)c3nc4cccc(F)c4c(=O)n3C3CCC3)c3ncnc(N)c23)cc1OC (centres unmarked) [Compound 27, 2-(1-(4-amino-3-(3,4-dimethoxyphenyl)-1H-pyrazolo [3,4-d]pyrimidin-1-yl)ethyl)-3-cyclobutyl-5-fluoroquinazolin-4(3H)-one] | 1.1 | – | 0.434 | 0.0103 | – | –
Cc1ccc(-c2nn(C(C)c3nc4ccc(F)cc4c(=O)n3C3CC3)c3ncnc(N)c23)cc1F (centres unmarked) [Compound 43, 2-(1-(4-amino-3-(3-fluoro-4-methylphenyl)-1H-pyrazolo [3,4-d]pyrimidin-1-yl)ethyl)-3-cyclopropyl-6-fluoroquinazolin-4-(3H)-one] | – | – | – | 0.0273 | – | –
COc1ccc(-c2nn(C(C)c3nc4ccccc4c(=O)n3C3CC3)c3ncnc(N)c23)cc1C (centres unmarked) [Compound 44, 2-(1-(4-amino-3-(4-methoxy-3-methylphenyl)-1H-pyrazolo [3,4-d]pyrimidin-1-yl)ethyl)-3-cyclopropylquinazolin-4(3H)-one] | – | – | – | 0.0398 | – | –
COc1ccc(-c2nn(C(C)c3nc4ccccc4c(=O)n3C3CC3)c3ncnc(N)c23)cc1 (centres unmarked) [Compound 45, 2-(1-(4-amino-3-(4-methoxyphenyl)-1H-pyrazolo [3,4-d]pyrimidin-1-yl)ethyl)-3-cyclopropylquinazolin-4(3H)-one] | – | – | – | 0.0272 | – | –
CC(c1nc2cccc(F)c2c(=O)n1C1CCCC1)n1nc(-c2ccc3c(c2)OCO3)c2c(N)ncnc21 (centres unmarked) [Compound 46, 2-(1-(4-amino-3-(benzo[d][1,3]dioxol-5-yl)-1H-pyrazolo [3,4-d]pyrimidin-1-yl)ethyl)-3-cyclopentyl-5-fluoroquinazolin-4(3H)-one] | – | – | – | 0.0347 | – | –
CCC(c1nc2cccc(F)c2c(=O)n1C1CC1)n1nc(-c2ccc(OC)c(OC)c2)c2c(N)ncnc21 (centres unmarked) [Compound 47, 2-(1-(4-amino-3-(3,4-dimethoxyphenyl)-1H-pyrazolo [3,4-d]pyrimidin-1-yl)propyl)-3-cyclopropyl-5-fluoroquinazolin-4(3H)-one] | – | – | – | 0.0321 | – | –
CCC(c1nc2cccc(F)c2c(=O)n1C1CC1)n1nc(-c2ccc(OC)nc2)c2c(N)ncnc21 (centres unmarked) [Compound 50, 2-(1-(4-amino-3-(6-methoxypyridin-3-yl)-1H-pyrazolo [3,4-d]pyrimidin-1-yl)propyl)-3-cyclopropyl-5-fluoroquinazolin-4(3H)-one] | – | – | – | 0.0485 | – | –
CC(=O)Nc1ccc(-c2nn(C(C)c3nc4cccc(F)c4c(=O)n3C3CCC3)c3ncnc(N)c23)cc1 (centres unmarked) [Compound 53, N-(4-(4-amino-1-(1-(3-cyclobutyl-5-fluoro-4-oxo-3,4-dihydroquinazolin-2-yl)ethyl)-1H-pyrazolo[3,4-d]pyrimidin-3-yl)phenyl)acetamide] | – | – | – | 0.0438 | – | –
COc1ccc(-c2nn(C(C)c3nc4cccc(F)c4c(=O)n3C3CCC3)c3ncnc(N)c23)cn1 (centres unmarked) [Compound 54, 2-(1-(4-amino-3-(6-methoxypyridin-3-yl)-1H-pyrazolo [3,4-d]pyrimidin-1-yl)ethyl)-3-cyclobutyl-5-fluoroquinazolin-4(3H)-one] | – | – | – | 0.039 | – | –
CCC(c1nc2cc(F)c(F)cc2c(=O)n1C1CC1)n1nc(-c2ccc(OC)c(F)c2)c2c(N)ncnc21 (centres unmarked) [Compound 56, 2-(1-(4-amino-3-(3-fluoro-4-methoxyphenyl)-1H-pyrazolo [3,4-d]pyrimidin-1-yl)propyl)-3-cyclopropyl-6,7-difluoroquinazolin-4(3H)-one] | – | – | – | 0.0567 | – | –
CC[C@@H](c1nc2cccc(F)c2c(=O)n1C1CC1)n1nc(-c2ccc(OC)c(F)c2)c2c(N)ncnc21 [Compound 81, 2-((S)-1-(4-amino-3-(3-fluoro-4-methoxyphenyl)-1H-pyrazolo [3,4-d]pyrimidin-1-yl)propyl)-3-cyclopropyl-5-fluoroquinazolin-4(3H)-one] | – | 0.79 | 0.471 | 0.0164 | – | –
CC[C@H](c1nc2cccc(F)c2c(=O)n1C1CC1)n1nc(-c2ccc(OC)c(F)c2)c2c(N)ncnc21 [Compound 82, 2-((R)-1-(4-amino-3-(3-fluoro-4-methoxyphenyl)-1H-pyrazolo [3,4-d]pyrimidin-1-yl)propyl)-3-cyclopropyl-5-fluoroquinazolin-4(3H)-one] | – | – | – | 0.0367 | – | –
CC(C)Oc1ccc(-c2nn([C@@H](C)c3oc4ccc(F)cc4c(=O)c3-c3cccc(F)c3)c3ncnc(N)c23)cc1F [TGR1202, reference compound] | – | – | – | – | > 10 | 0.362
